{
  "source": "ChEMBL document CHEMBL1130471",
  "about": "“RES-701-1/endothelin-1 hybrid peptide having a potent binding activity for type B receptor” (Bioorg Med Chem Lett, 1997)",
  "data": [
    {"biological_target": "T1, Endothelin-1 receptor (Bos taurus, UniProt P21450)", "T1 sequence (P21450 whole entry)": "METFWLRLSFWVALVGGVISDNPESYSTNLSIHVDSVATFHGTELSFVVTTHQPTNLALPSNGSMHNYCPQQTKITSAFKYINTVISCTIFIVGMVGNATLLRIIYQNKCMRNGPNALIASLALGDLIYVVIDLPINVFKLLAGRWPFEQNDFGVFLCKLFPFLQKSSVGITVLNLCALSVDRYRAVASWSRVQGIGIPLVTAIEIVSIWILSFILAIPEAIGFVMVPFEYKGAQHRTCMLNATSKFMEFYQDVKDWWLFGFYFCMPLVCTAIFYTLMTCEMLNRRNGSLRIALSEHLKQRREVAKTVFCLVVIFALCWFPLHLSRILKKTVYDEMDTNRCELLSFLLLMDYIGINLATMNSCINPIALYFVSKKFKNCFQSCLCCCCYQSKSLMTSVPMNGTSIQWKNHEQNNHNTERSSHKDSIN", "test": "Binding activity to ET-A receptor on bovine lung membrane was determined", "assay_type": "tissue-based", "units": {"IC50": "µM"}, "values": [
      {"molecule": "CC[C@H](C)[C@H](NC(=O)[C@H](CC(=O)O)NC(=O)[C@H](CC(C)C)NC(=O)[C@H](Cc1c[nH]cn1)NC(=O)[C@H](C)NC(=O)[C@H](Cc1ccccc1)NC(=O)[C@H](Cc1ccc(O)cc1)NC(=O)[C@@H](NC(=O)[C@H](Cc1c[nH]c2ccccc12)NC(=O)[C@@H]1CC(=O)NCC(=O)N[C@@H](CC(N)=O)C(=O)N[C@@H](Cc2c[nH]c3ccccc23)C(=O)N[C@@H](Cc2c[nH]cn2)C(=O)NCC(=O)N[C@@H]([C@@H](C)O)C(=O)N[C@@H](C)C(=O)N2CCC[C@H]2C(=O)N1)C(C)C)C(=O)N[C@H](C(=O)N[C@@H](Cc1c[nH]c2ccccc12)C(=O)O)[C@@H](C)CC", "IC50": "> 0.1"},
      {"molecule": "CC[C@H](C)[C@H](NC(=O)[C@@H](NC(=O)[C@H](CC(=O)O)NC(=O)[C@H](CCC(N)=O)NC(=O)[C@H](Cc1c[nH]cn1)NC(=O)[C@H](C)NC(=O)[C@H](Cc1ccccc1)NC(=O)[C@H](Cc1ccc(O)cc1)NC(=O)[C@H](CC(C)C)NC(=O)[C@H](Cc1c[nH]c2ccccc12)NC(=O)[C@@H]1CC(=O)NCC(=O)N[C@@H](CC(N)=O)C(=O)N[C@@H](Cc2c[nH]c3ccccc23)C(=O)N[C@@H](Cc2c[nH]cn2)C(=O)NCC(=O)N[C@@H]([C@@H](C)O)C(=O)N[C@@H](C)C(=O)N2CCC[C@H]2C(=O)N1)C(C)C)C(=O)N[C@@H](Cc1c[nH]c2ccccc12)C(=O)O", "IC50": "> 0.1"},
      {"molecule": "C[C@@H]1NC(=O)[C@H]([C@@H](C)O)NC(=O)CNC(=O)[C@H](Cc2c[nH]cn2)NC(=O)[C@H](Cc2c[nH]c3ccccc23)NC(=O)[C@H](CC(N)=O)NC(=O)CNC(=O)C[C@@H](C(=O)N[C@@H](Cc2c[nH]c3ccccc23)C(=O)N[C@@H](Cc2ccccc2)C(=O)N[C@@H](Cc2ccccc2)C(=O)N[C@@H](CC(N)=O)C(=O)N[C@@H](Cc2ccc(O)cc2)C(=O)N[C@@H](Cc2ccc(O)cc2)C(=O)N[C@@H](Cc2c[nH]c3ccccc23)C(=O)O)NC(=O)[C@@H]2CCCN2C1=O", "IC50": "> 5"},
      {"molecule": "CC[C@H](C)[C@H](NC(=O)[C@H](CC(=O)O)NC(=O)[C@H](CC(C)C)NC(=O)[C@H](Cc1c[nH]cn1)NC(=O)[C@H](C)NC(=O)[C@H](Cc1ccc(O)cc1)NC(=O)[C@H](Cc1ccc(O)cc1)NC(=O)[C@@H](NC(=O)[C@H](Cc1c[nH]c2ccccc12)NC(=O)[C@@H]1CC(=O)NCC(=O)N[C@@H](CC(N)=O)C(=O)N[C@@H](Cc2c[nH]c3ccccc23)C(=O)N[C@@H](Cc2c[nH]cn2)C(=O)NCC(=O)N[C@@H]([C@@H](C)O)C(=O)N[C@@H](C)C(=O)N2CCC[C@H]2C(=O)N1)C(C)C)C(=O)N[C@H](C(=O)N[C@@H](Cc1c[nH]c2ccccc12)C(=O)O)[C@@H](C)CC", "IC50": "> 0.1"}
    ]},
    {"biological_target": "T2, Endothelin receptor type B (Bos taurus, UniProt P28088)", "T2 sequence (P28088 whole entry)": "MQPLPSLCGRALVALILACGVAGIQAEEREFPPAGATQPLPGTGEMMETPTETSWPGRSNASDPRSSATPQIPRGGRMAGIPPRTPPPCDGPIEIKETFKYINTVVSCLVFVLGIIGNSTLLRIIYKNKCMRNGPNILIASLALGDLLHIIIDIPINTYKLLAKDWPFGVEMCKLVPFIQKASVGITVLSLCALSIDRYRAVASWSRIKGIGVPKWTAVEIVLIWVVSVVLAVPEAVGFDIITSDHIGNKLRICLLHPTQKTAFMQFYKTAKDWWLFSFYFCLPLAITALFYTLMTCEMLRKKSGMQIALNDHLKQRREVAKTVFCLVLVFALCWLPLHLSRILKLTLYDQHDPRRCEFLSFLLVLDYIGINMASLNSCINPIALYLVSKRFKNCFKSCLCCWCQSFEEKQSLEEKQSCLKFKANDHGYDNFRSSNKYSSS", "test": "Binding activity to ET-B receptor on bovine cerebellum membrane", "assay_type": "tissue-based", "units": {"IC50": "µM"}, "values": [
      {"molecule": "H-LYFCHQDVIW-OH", "IC50": 3},
      {"molecule": "H-VYFSHLDIIW-OH", "IC50": 1},
      {"molecule": "C[C@@H]1NC(=O)[C@H]([C@@H](C)O)NC(=O)CNC(=O)[C@H](Cc2c[nH]cn2)NC(=O)[C@H](Cc2c[nH]c3ccccc23)NC(=O)[C@H](CC(N)=O)NC(=O)CNC(=O)[C@H](Cc2c[nH]c3ccccc23)NC(=O)[C@H](Cc2ccc(O)cc2)NC(=O)[C@H](Cc2ccc(O)cc2)NC(=O)[C@H](CC(N)=O)NC(=O)[C@H](Cc2ccccc2)NC(=O)[C@H](Cc2ccccc2)NC(=O)[C@H](Cc2c[nH]c3ccccc23)NC(=O)[C@H](CC(=O)O)NC(=O)[C@@H]2CCCN2C1=O", "IC50": "> 5"},
      {"molecule": "H-WFFNYYW-OH", "IC50": 3},
      {"molecule": "CC[C@H](C)[C@H](NC(=O)[C@H](CC(=O)O)NC(=O)[C@H](CC(C)C)NC(=O)[C@H](Cc1cnc[nH]1)NC(=O)[C@@H]1CSSC[C@H](N)C(=O)N[C@@H](CO)C(=O)N[C@H]2CSSC[C@H](NC(=O)[C@H](CCC(=O)O)NC(=O)[C@H](CCCCN)NC(=O)[C@H](CC(=O)O)NC(=O)[C@H](CCSC)NC(=O)[C@H](CC(C)C)NC(=O)[C@H](CO)NC(=O)[C@H](CO)NC2=O)C(=O)N[C@@H](C(C)C)C(=O)N[C@@H](Cc2ccc(O)cc2)C(=O)N[C@@H](Cc2ccccc2)C(=O)N1)C(=O)N[C@H](C(=O)N[C@@H](Cc1c[nH]c2ccccc12)C(=O)O)[C@@H](C)CC", "note": "[ENDOTHELIN]", "IC50": 1},
      {"molecule": "H-VYYCHLDIIW-OH", "IC50": 3},
      {"molecule": "C[C@H](NC(=O)[C@@H](NC(=O)CNC(=O)[C@H](Cc1c[nH]cn1)NC(=O)[C@H](Cc1c[nH]c2ccccc12)NC(=O)[C@H](CC(N)=O)NC(=O)CN)[C@@H](C)O)C(=O)N1CCC[C@H]1C(=O)N[C@@H](CC(=O)O)C(=O)N[C@@H](Cc1c[nH]c2ccccc12)C(=O)N[C@@H](Cc1ccccc1)C(=O)N[C@@H](Cc1ccccc1)C(=O)N[C@@H](CC(N)=O)C(=O)N[C@@H](Cc1ccc(O)cc1)C(=O)N[C@@H](Cc1ccc(O)cc1)C(=O)N[C@@H](Cc1c[nH]c2ccccc12)C(=O)O", "IC50": 5}
    ]}
  ]
}
